Experimental data taken from patent US12209060B2, “Ketamine derivatives and compositions thereof” (XWPHARMA LTD., priority 2018, dated 2025).
Where two headings read alike, the source gives them in different places.

Legend:
[1] = cited from earlier work; for Cmax / Tmax / oral bioavailability: humans, orally administered 50 mg tablet, Yanagihara et al. 2003
[2] = Whole blood stability (ketamine formation), rat; type: in vitro ADME; details: 3 μM, 37° C., up to 60 min, ketamine formed, S-ketamine = 100
Method: Whole Blood Stability Assay: Test compounds were incubated in 37° C. pre-warmed rat whole blood at 3 μM (final acetonitrile concentration 1%) for up to 60 min at 37° C. One-hundred 100 μL aliquots of spiked sample solutions were taken at pre-defined time points (0 to 60 min) post incubation, and were immediately extracted by adding 5 volumes of extraction solvent and then centrifuged at 20,000×g for 5 min. The supernatant fractions were analyzed with LC-MS/MS for the amount of the test compound remaining and ketamine.

[3] = Whole blood stability (ketamine formation), human; type: in vitro ADME; details: ketamine formed, S-ketamine = 100
[4] = In vivo Monkey PK studies; details: for AUC(0-∞) / Cmax: S-ketamine in blood
Method: The de-proteinized samples were temporarily held in ice following by storing at −70° C. before bioanalysis.
(§1) Bio-Analysis: Samples were monitored for parent compound disappearance and ketamine formation in multi-reaction monitoring (MRM) mode by LC-MS/MS system. The mobile phase was performed at a constant flow rate of 0.8 mL/min using a binary solvent system: Solvent A, de-ionized water containing 0.10% formic acid, and Solvent B, methanol containing 0.10% formic acid. MRM data were acquired, and the chromatograms were integrated using Quant Wizard of the version 1.5.2 software (Analyst Software from ABI). A weighted (1/x or 1/x^2) linear regression was used to generate the calibration curve from standards and to calculate the sample concentrations.
(§2) Pharmacokinetic Data Analysis: The pharmacokinetic parameters were estimated for each subject using the Phoenix™ WinNonlin program, version 6.3 (Phoenix WinNonlin© 2012, Pharsight Corporation, Mountain View, CA). Non-compartmental analysis was performed to generate parameter estimates. The terminal elimination rate constant (λ) was obtained, where possible, by linear regression of the terminal elimination phase of a log-linear plot of the blood concentration-time data. The criteria for λ acceptance were regression of at least three time points from the terminal elimination phase and r^2≥0.85. Half-life was defined as not determined (ND) if the criteria could not be met. Nominal time was used for t1/2 and AUC calculations. The apparent blood terminal elimination half-life (t1/2) was calculated according to the following formula: t1/2=ln(2)/λ. The observed maximum blood concentration (Cmax) and the time to reach the maximum blood concentration (Tmax) were obtained by visual inspection of the experimental data. The area under the blood concentration-time curve of ketamine from time 0 to the last measurable concentration (AUC(0-Last)) was determined by the linear trapezoidal method. The area under the blood concentration-time curve from time 0 to infinity (AUC(0-∞)) was determined by AUC(0-Last)+CLast/λ, in which CLast was the concentration corresponding to the time point of last measurable concentration (TLast).

In vivo Dog PK Studies = details: for AUC(0-last) / Cmax: S-ketamine in blood
Method: In vivo Dog PK Studies: Three male Beagle dogs were housed individually. Dogs in the oral administration groups were fasted overnight before treatment but with free access to water. Dogs in the IV groups had free access to food and water. For S-ketamine HCl salt, a single dose of […] was administered to each dog via intravenous (IV) administration. The vehicle used for S-ketamine HCl salt was saline. For other test compounds, a single dose of each test compound was administered to each dog via oral gavage (n=3/group). The vehicles used for dosing the test compounds were dependent on the properties of the test compound. Blood samples were collected at specified time-points (pre-dose, 10 min, 30 min, 1 h, 2 h, 3 h, 4 h, 5 h, 6 h, 8 h, post-dose) following administration to individual dogs within IV and PO group. To prevent compound degradation, drawn blood samples were immediately mixed in a ratio of 1:3 (v/v) with acetonitrile (containing 0.1% formic acid). The de-proteinized samples were temporarily held in ice following by storing at −70° C. before bioanalysis. The concentrations of analytes in the blood were determined by LC-MS/MS. Various pharmacokinetic parameters were calculated using Phoenix™ WinNonlin® software. To quantify the bioconversion efficiency of the test compounds in the circulation system, the bioavailability of S-ketamine after PO administration was calculated.
as §1, §2

[5] = Whole blood stability (ketamine formation), monkey; type: in vitro ADME; details: ketamine formed, S-ketamine = 100
In vivo Rat PK Studies = assay: In vivo Rat PK Studies; set-up: species or system rats; details: oral; bioavailability with respect to S-ketamine; oral dose level 5 μmol/kg to 160 μmol/kg
Method: (§3) In vivo Mouse/Rat PK Studies: Pharmacokinetic profiles of the test compounds were evaluated in mice and rats […] (S-ketamine or prodrugs) administration. The oral dose level was 5 μmol/kg to 160 μmol/kg administered at a volume of 10 mL/kg. Blood samples were collected from the facial veins using heparinated tubes at pre-dose and 0.05, 0.17, 0.5, 1, 2, 3, 4, 6, and 8 hours post-dose following intravenous administration, and withdrawn at pre-dose and 0.17, 0.5, 1, 2, 3, 4, 5, 6, and 8 hours post-dose following oral administration. In each mouse PK study, mice were sub-grouped for a sparse sampling strategy. Each mouse provided two blood samples at different collection times. Blood samples were collected from alternating groups of three mice per time point.
(§4) Non-compartmental analysis was performed to generate parameter estimates.

[6] = Whole blood stability (ketamine formation), mouse; type: in vitro ADME; details: ketamine formed, S-ketamine = 100
In vivo Mouse PK Studies = assay: In vivo Mouse PK Studies; set-up: species or system mice; details: oral; bioavailability with respect to S-ketamine; oral dose level 5 μmol/kg to 160 μmol/kg
Method: as §3, §4

[7] = Whole blood stability (ketamine formation), dog; type: in vitro ADME; details: ketamine formed, S-ketamine = 100
[8] = oral, bioavailability with respect to S-ketamine (Table 5 summary)

SMILES: CN[C@@]1(c2ccccc2Cl)CCCCC1=O [(R)-ketamine]
- Cmax [1]: about 41 ng/mL
- Tmax [1]: about 31 min
- oral bioavailability [1]: about 18%

SMILES: CNC1(c2ccccc2Cl)CCCCC1=O (centres unmarked) [Ketamine, 2-(2-chiorophenyl)-2-(methylamino)cyclohexan-1-one]
- oral bioavailability in humans (% F) [1]: about 20%

SMILES: CN[C@]1(c2ccccc2Cl)CCCCC1=O [S-ketamine]
- Cmax [1]: about 41 ng/mL
- Tmax [1]: about 31 min
- oral bioavailability [1]: about 18%
- Rat Ket (%) [2]: 100%
- Human Ket (%) [3]: 100%
- AUC(0-∞) ([4]; monkeys, IV @5 μmol/kg): 2.325 µM·h
- Cmax ([4]; monkeys, IV @5 μmol/kg): 1200 nM
- AUC(0-∞) ([4]; monkeys, PO @10 μmol/kg): 0.034 µM·h
- Cmax ([4]; monkeys, PO @10 μmol/kg): 13 nM
- F ([4]; monkeys, PO @10 μmol/kg, bioavailability of S-ketamine): 0.7%
- Monkey F [4, 8]: 0.7%
- AUC(0-last) (In vivo Dog PK Studies; dogs, IV @3.75 μmol/kg): 0.244 µM·h
- Cmax (In vivo Dog PK Studies; dogs, IV @3.75 μmol/kg): 669 nM
- AUC(0-last) (In vivo Dog PK Studies; dogs, PO 15 μmol/kg): 0.017 µM·h
- Cmax (In vivo Dog PK Studies; dogs, PO 15 μmol/kg): 9 nM
- F (In vivo Dog PK Studies; dogs, PO 15 μmol/kg, bioavailability of S-ketamine): 1.8%
- Dog F (In vivo Dog PK Studies; [8]): 1.8%
- Monkey Ket (%) [5]: 100%
- Rat F (In vivo Rat PK Studies): 4.9%
- Mouse Ket (%) [6]: 100%
- Mouse F (In vivo Mouse PK Studies): 5.6%
- Dog Ket (%) [7]: 100%
